In patent US10537535B2, “Histone deacetylase inhibitors” (The Regents of the University of California, priority 2015, dated 2020):

How the values were obtained:
[1] = system: pGMR-HTTQ120 flies; conditions: orally-administered, previous studies; cited from earlier work
[2] = system: gene expression in the antenna of Drosophila melanogaster; assay: RNA-seq transcriptome analysis of Drosophila antennae after exposure or feeding; assay type: in vivo; conditions: 5 days; diacetyl 1% headspace, SB/VA 10 mM in food; vs control
Description: In order to examine the physiological effects of long-term exposure to an odorant, flies were maintained in vials with circulating volatiles from headspace of a low concentration (1% in paraffin oil) of the odorant diacetyl, which acts on a number of different receptor pathways in Drosophila. In a similar manner to previous odor-exposure studies, flies were exposed to diacetyl for 5 days and performed an RNA-seq analysis of the antennae, which are known odor-detecting organs. The transcriptome was compared with a control group of age-matched flies that were exposed to the headspace of the solvent paraffin oil (PO, FIG. 3A).
Flies were exposed to diacetyl (2,3-Butanedione, B85307, Sigma-Aldrich, St. Louis, Mo.) by placing them in vials in a cylindrical closed container (112 mm diameter×151 mm height) along with an odor-containing glass vial. The odorant was dissolved in 10 mL paraffin oil at 1% dilution. For a given exposure protocol, two groups of flies were prepared: those exposed to 1% diacetyl headspace and those exposed to paraffin oil headspace alone (control flies). Adult male flies aged 1 d were transferred to fly vials containing fresh medium, and put into the container with the odor vial. At the end of the fifth day of exposure, flies were collected, and their antennae were dissected for RNA extraction. All treatments and experiments were performed at room temperature. For the recovery experiment, flies were transferred again to the container containing a glass vial of paraffin oil after 5 days of diacetyl exposure. At the end of the fifth day of recovery, flies were collected, and their antennae were dissected for RNA extraction.
Sodium butyrate (B5887, Sigma-Aldrich) or valproic acid (P4543, Sigma-Aldrich) were dissolved in normal fly food medium at the final concentration of 10 mM. Three groups of flies were prepared: those treated with one of the HDAC inhibitors and those without HDAC inhibitor treatment (control flies). Adult flies aged 1 d were transferred to fly vials containing medium with or without a HDAC inhibitor. At the end of the fifth day of treatment, flies were collected, and their antennae were dissected for RNA extraction. All treatments and experiments were performed at room temperature.
The second and third antennal segments from 40-60 male flies after treatment were carefully hand-dissected from the head, collected in 1.5 ml microfuge tubes kept cold in liquid nitrogen. Antennae were mechanically crushed with disposable RNAse-free plastic pestles, and total RNA was isolated using a Trizol-based protocol. cDNA libraries were prepared from total RNA (300-1000 ng/sample) using the Illumina TruSeq RNA Library Preparation Kit (Illumina Catalog #RS-122-2001). Samples were submitted to the UCR IIGB sequencing core for high-throughput sequencing using the Illumina HiSeq2500 platform. Raw reads were aligned to the Drosophila melanogaster reference genome (dmel-all-chromosome-r5.48.fasta) with Tophat2, and a count table of reads overlapping with exonic regions of genes was generated by the UCR bioinformatics core. The numbers of biological replicates are: 2, day 5 paraffin oil; 1, day 5 diacetyl; 2, day 5 mock; 2, day 5 sodium butyrate; 2, day 5 valproic acid; 2, day 10 paraffin oil recovery; 2, day 10 diacetyl recovery.
The read count table for all the genes were then imported into R and a statistical analysis of differential gene expression using the DESeq package (1.22.0) was performed. […] The gene list analysis was performed using the GO Term Mapper (http://go.princeton.edu/) with Generic GO slim datasets, and the Statistical overrepresentation test was performed using the PANTHER classification (http://www.pantherdb.org/) system with GO complete datasets.
This example investigates the overlap among genes modulated by diacetyl as compared to sodium butyrate and valproic acid, which are known HDAC inhibitors. […]

[3] = system: Gr63a; assay: Whole mount RNA in situ of adult Drosophila antenna Gr63a; assay type: in vivo; conditions: 5 days; odor 1 1% on filter paper, sodium butyrate 10 mM fed; vs untreated or mock
Procedure: For five days, Drosophila were exposed to 1% diacetyl (odor 1) on filter paper; fed known HDAC inhibitor sodium butyrate (Na-but; 10 mM); or fed known HDAC inhibitor valproic acid (10 mM).

O=C(CCCCCCC(=O)Nc1ccccc1)NO [SAHA, suberoylanilide hydroxamic acid]
photoreceptor degeneration in Huntington's model Drosophila [1]: significantly reduce photoreceptor degeneration

CCCC(=O)[O-].[Na+] [sodium butyrate, Sodium butyrate, reference compound]
photoreceptor degeneration in Huntington's model Drosophila [1]: significantly reduce photoreceptor degeneration | number of differentially-expressed genes in antennal transcriptome [2]: 558 genes | number of genes down-regulated >2-fold [2]: 366 genes | number of genes up-regulated >2-fold [2]: 192 genes | Gr63a expression in antenna (RNA in situ) [3]: over-expression

CCCC(CCC)C(=O)O [valproic acid, reference compound]
number of differentially-expressed genes in antennal transcriptome [2]: 940 genes | number of genes down-regulated >2-fold [2]: 772 genes | number of genes up-regulated >2-fold [2]: 168 genes
